Source: PubChem BioAssay AID248 (DTP/NCI, 2004)
“And” between values parts separate entries of the source, which are not always exact repeats. Equal entries are not always repeated. Inconclusive results and toxic doses are left out.

Tested on: L1210 leukemia ip in BDF1 mice, survival T/C
Test: NCI In Vivo Anticancer Drug Screen. Data for tumor model L1210 Leukemia (intraperitoneal) in B6D2F1 (BDF1) mice
Details: endpoint: mean survival time, higher = longer survival
Procedure, shortened: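 Read-out is survival time, reported as the treated-group measurement over the vehicle-control measurement.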

O=NN(CCCl)C(=O)NC1CC2CCC1C2 (centres undefined)
T/C (dose: 1.04 mg/kg/injection, schedule: Q#B X Z (ip), vehicle: other): 96 % of control
T/C (dose: 2.0 mg/kg/injection, schedule: Q01DX001 (ip), vehicle: carboxymethylcellulose (CMC)): 112 % of control
T/C (dose: 3.1 mg/kg/injection, schedule: Q01DX015 (ip), vehicle: other): 114 % of control
T/C (dose: 3.12 mg/kg/injection, schedule: Q03HX008 (oral), vehicle: carboxymethylcellulose (CMC)): 188 % of control
T/C (dose: 3.12 mg/kg/injection, schedule: Q03HX024 (oral), vehicle: carboxymethylcellulose (CMC)): 261 % of control
T/C (dose: 4.0 mg/kg/injection, schedule: Q01DX001 (ip), vehicle: carboxymethylcellulose (CMC)): 115 % of control
T/C (dose: 4.9 mg/kg/injection, schedule: Q01DX015 (ip), vehicle: other): 210 % of control
T/C (dose: 6.25 mg/kg/injection, schedule: Q01DX001 (im), vehicle: other): 112 % of control
T/C (dose: 6.25 mg/kg/injection, schedule: Q01DX001 (ip), vehicle: other): 109 % of control and 118 % of control
T/C (dose: 6.25 mg/kg/injection, schedule: Q01DX001 (ip), vehicle: saline): 98 % of control and 101 % of control
T/C (dose: 6.25 mg/kg/injection, schedule: Q01DX001 (iv), vehicle: other): 105 % of control
T/C (dose: 6.25 mg/kg/injection, schedule: Q01DX001 (oral), vehicle: other): 100 % of control
T/C (dose: 6.25 mg/kg/injection, schedule: Q01DX001 (sc), vehicle: other): 114 % of control
T/C (dose: 6.25 mg/kg/injection, schedule: Q03DX Z (ip), vehicle: other): 156 % of control
T/C (dose: 6.25 mg/kg/injection, schedule: Q03HX008 (oral), vehicle: carboxymethylcellulose (CMC)): 188 % of control
T/C (dose: 6.25 mg/kg/injection, schedule: Q07DX Z (ip), vehicle: other): 121 % of control
T/C (dose: 8.0 mg/kg/injection, schedule: Q01DX001 (ip), vehicle: carboxymethylcellulose (CMC)): 124 % of control
T/C (dose: 8.0 mg/kg/injection, schedule: Q01DX009 (ip), vehicle: carboxymethylcellulose (CMC)): 227 % of control
T/C (dose: 8.0 mg/kg/injection, schedule: Q01DX009 (oral), vehicle: carboxymethylcellulose (CMC)): 227 % of control
T/C (dose: 8.0 mg/kg/injection, schedule: Q04DX003 (ip), vehicle: carboxymethylcellulose (CMC)): 150 % of control
T/C (dose: 8.33 mg/kg/injection, schedule: Q#B X Z (ip), vehicle: other): 105 % of control
T/C (dose: 9.6 mg/kg/injection, schedule: Q## X032 (ip), vehicle: other): 150 % of control
T/C (dose: 12.0 mg/kg/injection, schedule: Q01DX001 (ip), vehicle: carboxymethylcellulose (CMC)): 124 % of control
T/C (dose: 12.5 mg/kg/injection, schedule: Q01DX001 (ip), vehicle: other): 150 % of control
T/C (dose: 12.5 mg/kg/injection, schedule: Q01DX001 (ip), vehicle: saline): 103 % of control and 106 % of control
T/C (dose: 12.5 mg/kg/injection, schedule: Q01DX001 (sc), vehicle: other): 151 % of control
T/C (dose: 12.5 mg/kg/injection, schedule: Q03DX Z (ip), vehicle: other): 235 % of control
T/C (dose: 12.5 mg/kg/injection, schedule: Q04DX003 (oral), vehicle: carboxymethylcellulose (CMC)): 177 % of control
T/C (dose: 12.5 mg/kg/injection, schedule: Q07DX Z (ip), vehicle: other): 179 % of control
T/C (dose: 14.5 mg/kg/injection, schedule: Q## X001 (ip), vehicle: other): 172 % of control
T/C (dose: 15.0 mg/kg/injection, schedule: Q## X032 (ip), vehicle: other): 158 % of control
T/C (dose: 16.0 mg/kg/injection, schedule: Q01DX001 (ip), vehicle: carboxymethylcellulose (CMC)): 179 % of control
T/C (dose: 16.0 mg/kg/injection, schedule: Q01DX015 (ip), vehicle: other): 261 % of control
T/C (dose: 16.0 mg/kg/injection, schedule: Q04DX003 (ip), vehicle: carboxymethylcellulose (CMC)): 193 % of control
T/C (dose: 25.0 mg/kg/injection, schedule: Q01DX001 (im), vehicle: other): 214 % of control
T/C (dose: 25.0 mg/kg/injection, schedule: Q01DX001 (ip), vehicle: carboxymethylcellulose (CMC)): 196 % of control
T/C (dose: 25.0 mg/kg/injection, schedule: Q01DX001 (ip), vehicle: other): 220 % of control
T/C (dose: 25.0 mg/kg/injection, schedule: Q01DX001 (oral), vehicle: other): 210 % of control
T/C (dose: 25.0 mg/kg/injection, schedule: Q01DX001 (sc), vehicle: other): 227 % of control
T/C (dose: 25.0 mg/kg/injection, schedule: Q03HX008 (ip), vehicle: carboxymethylcellulose (CMC)): 107 % of control
T/C (dose: 25.0 mg/kg/injection, schedule: Q03HX008 (oral), vehicle: carboxymethylcellulose (CMC)): 155 % of control
T/C (dose: 25.0 mg/kg/injection, schedule: Q03HX024 (oral), vehicle: carboxymethylcellulose (CMC)): 150 % of control
T/C (dose: 25.0 mg/kg/injection, schedule: Q03HX040 (ip), vehicle: carboxymethylcellulose (CMC)): 114 % of control
T/C (dose: 25.0 mg/kg/injection, schedule: Q04DX005 (ip), vehicle: carboxymethylcellulose (CMC)): 186 % of control
T/C (dose: 26.0 mg/kg/injection, schedule: Q01DX001 (ip), vehicle: carboxymethylcellulose (CMC)): 162 % of control
T/C (dose: 29.0 mg/kg/injection, schedule: Q01DX001 (ip), vehicle: other): 180 % of control and 240 % of control
T/C (dose: 29.25 mg/kg/injection, schedule: Q01DX001 (oral), vehicle: other): 156 % of control and 160 % of control
T/C (dose: 29.25 mg/kg/injection, schedule: Q## X001 (oral), vehicle: other): 196 % of control
T/C (dose: 30.0 mg/kg/injection, schedule: Q01DX001 (oral), vehicle: other): 229 % of control
T/C (dose: 32.0 mg/kg/injection, schedule: Q01DX009 (ip), vehicle: carboxymethylcellulose (CMC)): 196 % of control
T/C (dose: 32.0 mg/kg/injection, schedule: Q01DX009 (oral), vehicle: carboxymethylcellulose (CMC)): 187 % of control
T/C (dose: 32.4 mg/kg/injection, schedule: Q01DX001 (ip), vehicle: carboxymethylcellulose (CMC)): 109 % of control
T/C (dose: 35.0 mg/kg/injection, schedule: Q## X032 (ip), vehicle: other): 158 % of control
T/C (dose: 40.0 mg/kg/injection, schedule: Q01DX001 (ip), vehicle: carboxymethylcellulose (CMC)): 191 % of control
T/C (dose: 50.0 mg/kg/injection, schedule: Q01DX001 (ip), vehicle: saline): 242 % of control
T/C (dose: 50.0 mg/kg/injection, schedule: Q01DX009 (oral), vehicle: carboxymethylcellulose (CMC)): 200 % of control
T/C (dose: 50.0 mg/kg/injection, schedule: Q04DX005 (ip), vehicle: carboxymethylcellulose (CMC)): 230 % of control
T/C (dose: 50.0 mg/kg/injection, schedule: Q07DX Z (ip), vehicle: other): 223 % of control
T/C (dose: 50.0 mg/kg/injection, schedule: Q## X009 (ip), vehicle: carboxymethylcellulose (CMC)): 190 % of control
T/C (dose: 53.0 mg/kg/injection, schedule: Q## X032 (ip), vehicle: other): 121 % of control
T/C (dose: 54.0 mg/kg/injection, schedule: Q01DX001 (ip), vehicle: carboxymethylcellulose (CMC)): 115 % of control
T/C (dose: 64.0 mg/kg/injection, schedule: Q01DX005 (ip), vehicle: carboxymethylcellulose (CMC)): 119 % of control
T/C (dose: 64.0 mg/kg/injection, schedule: Q01DX009 (ip), vehicle: carboxymethylcellulose (CMC)): 123 % of control
T/C (dose: 64.0 mg/kg/injection, schedule: Q01DX009 (oral), vehicle: carboxymethylcellulose (CMC)): 106 % of control
T/C (dose: 64.0 mg/kg/injection, schedule: Q04DX003 (ip), vehicle: carboxymethylcellulose (CMC)): 118 % of control
T/C (dose: 66.0 mg/kg/injection, schedule: Q## X004 (ip), vehicle: other): 191 % of control
T/C (dose: 88.0 mg/kg/injection, schedule: Q01DX001 (oral), vehicle: other): 167 % of control
T/C (dose: 90.0 mg/kg/injection, schedule: Q01DX001 (ip), vehicle: carboxymethylcellulose (CMC)): 242 % of control
T/C (dose: 100.0 mg/kg/injection, schedule: Q01DX001 (ip), vehicle: carboxymethylcellulose (CMC)): 227 % of control
T/C (dose: 100.0 mg/kg/injection, schedule: Q01DX001 (ip), vehicle: other): 225 % of control
T/C (dose: 100.0 mg/kg/injection, schedule: Q01DX001 (oral), vehicle: carboxymethylcellulose (CMC)): 245 % of control
T/C (dose: 100.0 mg/kg/injection, schedule: Q01DX001 (oral), vehicle: other): 190 % of control
T/C (dose: 100.0 mg/kg/injection, schedule: Q01DX001 (sc), vehicle: other): 221 % of control
T/C (dose: 100.0 mg/kg/injection, schedule: Q01DX005 (ip), vehicle: carboxymethylcellulose (CMC)): 108 % of control
T/C (dose: 100.0 mg/kg/injection, schedule: Q01DX017 (ip), vehicle: carboxymethylcellulose (CMC)): 118 % of control
T/C (dose: 100.0 mg/kg/injection, schedule: Q04DX003 (oral), vehicle: carboxymethylcellulose (CMC)): 194 % of control
T/C (dose: 100.0 mg/kg/injection, schedule: Q## X006 (oral), vehicle: carboxymethylcellulose (CMC)): 161 % of control
T/C (dose: 100.0 mg/kg/injection, schedule: Q## X009 (ip), vehicle: carboxymethylcellulose (CMC)): 111 % of control
T/C (dose: 117.0 mg/kg/injection, schedule: Q01DX001 (oral), vehicle: other): 105 % of control
T/C (dose: 117.0 mg/kg/injection, schedule: Q## X001 (oral), vehicle: other): 122 % of control
T/C (dose: 128.0 mg/kg/injection, schedule: Q01DX001 (ip), vehicle: carboxymethylcellulose (CMC)): 104 % of control
T/C (dose: 128.0 mg/kg/injection, schedule: Q01DX001 (oral), vehicle: carboxymethylcellulose (CMC)): 245 % of control
T/C (dose: 128.0 mg/kg/injection, schedule: Q01DX005 (ip), vehicle: carboxymethylcellulose (CMC)): 93 % of control
T/C (dose: 187.0 mg/kg/injection, schedule: Q01DX001 (ip), vehicle: carboxymethylcellulose (CMC)): 224 % of control
T/C (dose: 200.0 mg/kg/injection, schedule: Q01DX001 (ip), vehicle: carboxymethylcellulose (CMC)): 94 % of control and 111 % of control
T/C (dose: 200.0 mg/kg/injection, schedule: Q01DX001 (ip), vehicle: other): 118 % of control
T/C (dose: 200.0 mg/kg/injection, schedule: Q01DX001 (iv), vehicle: other): 183 % of control
T/C (dose: 200.0 mg/kg/injection, schedule: Q01DX001 (oral), vehicle: carboxymethylcellulose (CMC)): 122 % of control
T/C (dose: 200.0 mg/kg/injection, schedule: Q04DX005 (ip), vehicle: carboxymethylcellulose (CMC)): 96 % of control
T/C (dose: 256.0 mg/kg/injection, schedule: Q01DX001 (sc), vehicle: carboxymethylcellulose (CMC)): 109 % of control
T/C (dose: 400.0 mg/kg/injection, schedule: Q01DX001 (ip), vehicle: other): 107 % of control
T/C (dose: 125.0 micrograms/kg/injection, schedule: Q03HX024 (ip), vehicle: carboxymethylcellulose (CMC)): 114 % of control
T/C (dose: 250.0 micrograms/kg/injection, schedule: Q03HX024 (ip), vehicle: carboxymethylcellulose (CMC)): 165 % of control
T/C (dose: 2000.0 micrograms/kg/injection, schedule: Q03HX008 (ip), vehicle: carboxymethylcellulose (CMC)): 253 % of control
